Laboratory results reported in PMC12268683, “A global perspective on autoinducer-2-mediated cell communication in prokaryotes” (iScience, 2025).

Legend:
[1] = molecular target: T1, LsrB receptor of S. coelicolor A3(2) (first of two, locus not given); assay: isothermal titration calorimetry; format: binding, Streptomyces coelicolor; details: 25 °C, 50 mM Tris, 150 mM NaCl, 10% glycerol, pH 8.0; one-site model; no borate added; which of the two LsrB not given
T1 construct: His6-tagged, pET-28a, E. coli BL21(DE3) or its luxS mutant, Ni-NTA
From the text: isothermal titration calorimetry on LsrB receptor of S. coelicolor A3(2) (first of two, locus not printed) | the LsrB receptors bound AI-2 with high affinity

[2] = molecular target: T2, LsrB receptor of S. coelicolor A3(2) (second of two, locus not given); assay: isothermal titration calorimetry; format: binding, Streptomyces coelicolor; details: 25 °C, 50 mM Tris, 150 mM NaCl, 10% glycerol, pH 8.0; one-site model; no borate added; which of the two LsrB not given
T2 construct: His6-tagged, pET-28a, E. coli BL21(DE3) or its luxS mutant, Ni-NTA
From the text: isothermal titration calorimetry on LsrB receptor of S. coelicolor A3(2) (second of two, locus not printed) | the LsrB receptors bound AI-2 with high affinity

CC(=O)C(=O)[C@@H](O)CO [DPD]
Kd [1]: 175 ± 30 nM | Kd [2]: 101 ± 10 nM
